{"source": "patent US8729047B2", "about": "“Compositions for inhibiting redox-sensitive GTPases” (Board of Regents, The University of Texas System, priority 2010, dated 2014)", "key": {"RhoA": {"target": "T1, RhoA (Rattus norvegicus, UniProt P61589)", "T1 construct": "endogenous in cells; host or cells: A7r5 cells (rat aortic vascular smooth muscle)", "T1 sequence (P61589 whole entry)": "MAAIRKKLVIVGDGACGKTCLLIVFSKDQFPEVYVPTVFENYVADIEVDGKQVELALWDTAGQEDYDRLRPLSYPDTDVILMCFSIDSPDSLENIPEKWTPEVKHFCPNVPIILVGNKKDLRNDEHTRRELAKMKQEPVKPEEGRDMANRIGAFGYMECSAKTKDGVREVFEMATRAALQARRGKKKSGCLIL", "assay": "RhoA expression (Western) and RhoA G-LISA activity in A7r5 cells", "assay_type": "cell-based", "procedure": "(§1) FIG. 20. Determination of RhoA activity and MLC phosphorylation. […] Cell lysates in a buffer containing 1% NP-40, 10 mM EDTA, and 20 mM TrisHCl (pH 7.4) were centrifuged (50,000×g, 20 min) to remove solid matter. (A) The soluble cell extract was then used to perform Western blot analyses for RhoA and the MLC. This cell extract also was used for the co-IP-based ESI-MS analysis (FIG. 6). (B) A RhoA activity assay was colorimetrically determined using cell extract; the assay was performed with the RhoA G-LISA Activation Assay Kit (Cat. No. BK124) (Denver, Colo.). To examine the level of phosphorylation of the MLC, cells were cultured with ˜5 μCi of ^32P in 1 mL of phosphate-free DMEM. The collected cell extract was nutated with resin coupled with a macrophage myosin II antibody at 4° C. for 5 h. Resin was collected by centrifugation, and proteins bound to the resin were washed and eluted with a buffer (80° C.) containing […], 5 mM DTT, and 10 mM TrisHCl (pH 6.8). The immunoprecipitates were then analyzed by SDS-PAGE and autoradiographed. The values of RhoA activity and the MLC phosphorylation determined from untreated cells were set at 100%. […] The data represented in the figure represent the mean values of triplicate measurements, and the vertical error bar indicates standard errors."}, "HME-RhoC cells [1]": {"system": "HME-RhoC cells", "assay": "Apoptosis / cell population of cells treated with thiopurines", "assay_type": "cell-based, human", "settings": "for cells that underwent apoptosis within a day: thiopurine 1 μM", "quoted_text": "RhoC-overexpressed mammary epithelium (HME-RhoC) cells were used to examine the effect of 6-TG and/or a redox agent on RhoC."}, "MLC": {"system": "MLC", "assay": "MLC phosphorylation in A7r5 cells", "assay_type": "cell-based, rat", "procedure": "as §1"}, "HME-RhoC cells [2]": {"system": "HME-RhoC cells", "assay": "MTT cell viability and caspase-3/8 assays", "assay_type": "cell-based, human", "excerpt": "FIG. 25. […] (B) Caspase-3/8 assay: the apoptotic activity of sample cells treated with the apoptotic inducer was set to be 100%, and other results were then expressed as normalized values against the mean value associated with the treatment with the apoptotic inducer. For both (A) and (B), all values represent the mean values and standard error values from triplicate measurements."}, "ERM": {"system": "ERM", "assay": "ERM phosphorylation in activated T cells", "assay_type": "cell-based", "procedure": "FIG. 26. Determination of Rac1 activity and ERM phosphorylation. […] (A) The soluble cell extract was then used to perform Western blot analyses for Rac1 and the ERM. This cell extract also was used for the co-IP-based ESI-MS analysis (FIG. 8). (B) A Rac1 activity assay was colorimetrically determined using cell extract; the assay was performed with the Rac1 G-LISA Activation Assay Kit (Cat. No. BK125) (Denver, Colo.). To examine the level of phosphorylation of the ERM, cells were cultured in complete RPMI 1640 medium with ˜50 μCi of ^32P/mL before initiating stimulation of T cells. The collected cell extract was nutated with resin coupled with a human ERM (231C2a) antibody (Santa Cruz Biotechnology, CA) at 4° C. for 5 h. […] The immunoprecipitates were then analyzed by SDS-PAGE and autoradiographed. […] The data represented in the figure represent the mean values of triplicate measurements, and the vertical error bar indicates standard errors."}, "T24 cells": {"system": "T24 cells", "assay": "Tumor cell apoptosis / viability (MTT)", "assay_type": "cell-based, human", "excerpt": "(§2) Cell viability was examined employing 3-(4,5-dimethylthiazol-2-yl)-2,5-diphenyl tetrazolium bromide (MTT) (Cabello et al. Int. J. Oncol. 23, 697-704 (2003))."}, "HT1080 cells": {"system": "HT1080 cells", "assay": "Tumor cell apoptosis / viability (MTT)", "assay_type": "cell-based, human", "excerpt": "as §2"}, "HME-RhoC cells [3]": {"system": "HME-RhoC cells", "assay": "Matrigel invasion (cell motility) assay", "assay_type": "cell-based, human", "procedure": "FIG. 5. Determination of cell invasiveness in the presence and absence of 6-thiopurine and/or a redox agent. The top chamber of a Transwell filter (6.5 mm with 8 μm pores, Costar; Corning, N.Y.) was coated with a 10 μL aliquot of 10 mg/mL Matrigel (BD Biosciences, Bedford Mass.), and the lower chamber of the Transwell was filled with either serum-free or serum-containing media. Sample cells (e.g., 6-TG-resistant HME-RhoC cells) were prepared to resuspend cells in a serum-free medium with 0.1% BSA at a concentration of 4×10^5 cells/mL. At this point, neither 6-thiopurine nor GSNO were added to the cells. The sample cells (0.5 mL) were added to the top chamber of a Transwell filter and were incubated for 24 h at 37° C. in a 10% CO2 incubator. The Transwell filters were fixed with methanol, stained with H&E, and cells in the serum-containing samples were counted. The number of cells that had invaded the serum-free medium-containing lower chambers was used as a control background. Results are given as percent invasion over that seen in HME-RhoC cells (100%) and represent mean and standard error values from triplicate measurements.\nFIG. 11. Determination of cell invasiveness in the presence and absence of […] and/or a redox agent. […] The number of cells that had invaded the serum-free medium-containing lower chambers was used as a control background. Results are given as percent invasion over that seen in HME-RhoC cells (100%) and represent mean and standard error values from triplicate measurements.\nFIG. 14. Determination of cell invasiveness in the presence and absence of thiopurines and/or redox agents. […] Western blot analysis representing the total expression of RhoC in these cells also is shown. (B) Experimental procedures for the determination of the time-dependent motility of cells using the QCM Cell Invasion Assay kit in the presence and absence of 6-TG and DETA/NO are described elsewhere herein.\nThe top chamber of a Transwell filter (6.5 mm with 8 μm pores, Costar; Corning, N.Y.) was coated with a 10 μL aliquot of 10 mg/mL Matrigel, and the lower chamber of the Transwell was filled with either serum-free or serum-containing media. Sample cells were prepared to resuspend cells in a serum-free medium with 0.1% BSA at a concentration of 4×10^5 cells/mL. […] The Transwell filters were fixed with methanol, stained with haematoxylin and eosin, and cells in the serum-containing samples were counted. The number of cells that had invaded the serum-free, medium-containing lower chambers was used as a control background."}, "[4]": {"settings": "6-TG plus DETA/NO 10 μM, FIG. 20B"}, "[5]": {"settings": "6-TG 1 μM every 48 h with DETA/NO or GSNO 10 μM, longer than ~10 days"}, "[6]": {"settings": "8-TG 1 μM with NO donor (DETA/NO or GSNO 10 μM), not shown"}}, "data": [{"smiles": "Nc1nc2nc[nH]c2c(=S)[nH]1", "note": "[6-TG, 6-thioguanine]", "values": [{"measurement": "RhoA inactivation", "setting": "RhoA; 6-TG 1 μM, within 3 days, FIG. 20B", "result": "significant portion of RhoA was inactivated"}, {"measurement": "fraction of inactive RhoA", "setting": "RhoA; [4]", "result": "synergistically increases the fraction of inactive RhoA"}, {"measurement": "cellular expression levels of RhoA and of the MLC", "setting": "RhoA; presence or absence of 6-TG, FIG. 20A", "result": "not changed"}, {"measurement": "cells persistently resisting additional treatments (of the initial cells)", "setting": "HME-RhoC cells [1]; 6-TG 1 μM", "result": "20%-25%"}, {"measurement": "cells that underwent apoptosis within a day", "setting": "HME-RhoC cells [1]", "result": "~80", "unit": "%"}, {"measurement": "dephosphorylated form of the MLC", "setting": "MLC; [4]", "result": "synergistically increases"}, {"measurement": "MLC dephosphorylation", "setting": "MLC; 6-TG, after 3 days, FIG. 20B", "result": "large portion of the MLC in A7r5 cells was observed to have been dephosphorylated"}, {"measurement": "apoptotic effect (caspase, FIG. 25B)", "setting": "HME-RhoC cells [2]; 6-TG", "result": "minimal"}, {"measurement": "viability and caspase activity", "setting": "HME-RhoC cells [2]; 6-TG and DETA/NO, FIG. 25", "result": "minimally affected"}, {"measurement": "cell viability (MTT, FIG. 25A)", "setting": "HME-RhoC cells [2]; 6-TG for 3 days", "result": "minimally affected"}, {"measurement": "blockage of ERM dephosphorylation", "setting": "ERM; 6-TG plus DETA/NO 10 μM", "result": "increases the blockage of the dephosphorylated form of ERM"}, {"measurement": "ERM phosphorylation", "setting": "ERM; 6-TG, after three days, FIG. 26B", "result": "large portion of ERM in T cells was observed to have been phosphorylated"}, {"measurement": "viability of 6-TG-resisting cells", "setting": "T24 cells; [5]", "result": "decrease in the viability"}, {"measurement": "apoptosis within a day", "setting": "T24 cells; 6-TG 1 μM, not shown", "result": "most cells underwent apoptosis"}, {"measurement": "initial cells that resisted additional treatment", "setting": "T24 cells; 6-TG 1 μM, not shown", "result": "~20", "unit": "%"}, {"measurement": "viability of 6-TG-resisting cells", "setting": "HT1080 cells; [5]", "result": "decrease in the viability"}, {"measurement": "apoptosis within a day", "setting": "HT1080 cells; 6-TG 1 μM, not shown", "result": "most cells underwent apoptosis"}, {"measurement": "initial cells that resisted additional treatment", "setting": "HT1080 cells; 6-TG 1 μM, not shown", "result": "~20", "unit": "%"}, {"measurement": "cell motility", "setting": "HME-RhoC cells [3]; 6-TG 1 μM alone, three or more consecutive days, FIG. 14A", "result": "gradual but significant diminution of cell motility"}, {"measurement": "invasive cell motility", "setting": "HME-RhoC cells [3]; 6-TG 1 μM with DETA/NO (or GSNO) 10 μM, three days, FIG. 14A", "result": "complete termination of the invasive cell motility"}]}, {"smiles": "Nc1nc2[nH]c(S)nc2c(=O)[nH]1", "note": "[8-TG, 2-amino-8-mercapto-1H-purin-6(9H)-one]", "values": [{"measurement": "screen of 6-TP isomers on RhoA activity", "setting": "RhoA; not shown", "result": "most effectively inhibits RhoA activity"}, {"measurement": "delayed minor apoptosis over the course of a week of treatment", "setting": "HME-RhoC cells [1]; 8-TG 1 μM", "result": "~5", "unit": "%"}, {"measurement": "cells that underwent apoptosis within a day", "setting": "HME-RhoC cells [1]", "result": "less than 5%"}, {"measurement": "screen of 6-TP isomers on MLC phosphorylation", "setting": "MLC; not shown", "result": "dephosphorylates the MLC"}, {"measurement": "viability of cells treated with 8-TG-redox agent", "setting": "HME-RhoC cells [2]; 8-TG for a week followed by NO donor", "result": "almost the same as that of the untreated HME-RhoC cells"}, {"measurement": "screen of 6-TP isomers on ERM dephosphorylation", "setting": "ERM; not shown", "result": "blocks the dephosphorylation of ERM"}, {"measurement": "viability and anchorage-independent growth", "setting": "T24 cells; [6]", "result": "did not affect"}, {"measurement": "viability and anchorage-independent growth", "setting": "HT1080 cells; [6]", "result": "did not affect"}, {"measurement": "invasive mobility after 8-TG followed by NO donor", "setting": "HME-RhoC cells [3]; 8-TG for a week, then DETA/NO or GSNO 10 μM every 20 or 8 h", "result": "virtually all of the invasive mobility of HME-RhoC cells was immediately terminated"}, {"measurement": "termination of RhoC-mediated cell invasiveness, 8-TG with redox agent versus 6-TG-redox combination", "setting": "HME-RhoC cells [3]; in conjunction with a redox agent", "result": "much more effective than a 6-TG-redox combination"}, {"measurement": "screen of thiopurine analogs on invasive cell mobility", "setting": "HME-RhoC cells [3]; in the presence of NO donor DETA/NO", "result": "most effectively inhibits"}, {"measurement": "decline of invasive cell mobility over 5 days of continuous treatment", "setting": "HME-RhoC cells [3]; only 8-TG 1 μM, FIG. 11", "result": "~60", "unit": "%"}, {"measurement": "decline of invasive cell mobility within a day", "setting": "HME-RhoC cells [3]; only 8-TG 1 μM, FIG. 11", "result": "~10", "unit": "%"}]}]}
